# Experimental data reported in PMC5218480 (PLoS ONE, 2017).
# Tested on: MV-4-11 cells
# Assay: Gene expression microarray analysis (Affymetrix PrimeView) and GSEA
# Type: cell-based, human
# Set-up: RFU PODN (11730768_x_at) / Fold change /veh PODN (11730768_x_at) / RFU LINC00158 (11744669_a_at) / Fold change /veh LINC00158 (11744669_a_at) / RFU DUSP10 (11751237_a_at) / Fold change /veh DUSP10 (11751237_a_at) / RFU ID3 (11757404_x_at) / Fold change /veh ID3 (11757404_x_at) / RFU PLEKHG5 (11737974_s_at) / Fold change /veh PLEKHG5 (11737974_s_at) / RFU LRRC4B (11730491_at) / Fold change /veh LRRC4B (11730491_at) / RFU GIMAP4 (11747438_a_at) / Fold change /veh GIMAP4 (11747438_a_at) / RFU KRT8 (11758183_x_at) / Fold change /veh KRT8 (11758183_x_at) / RFU CNN1 (11734310_a_at) / Fold change /veh CNN1 (11734310_a_at) / RFU VPS37D (11726825_at) / Fold change /veh VPS37D (11726825_at) / RFU C10orf10 (11716522_x_at) / Fold change /veh C10orf10 (11716522_x_at) / RFU KIR2DL2 /// KIR2DL4 /// KIR2DL5A /// KIR2DL5B /// KIR2DS1 /// KIR2DS2 /// KIR2DS3 /// KIR2DS4 /// KIR3DL3 /// KIR3DL3 /// KIR3DS1 (11738374_at) / Fold change /veh KIR2DL2 /// KIR2DL4 /// KIR2DL5A /// KIR2DL5B /// KIR2DS1 /// KIR2DS2 /// KIR2DS3 /// KIR2DS4 /// KIR3DL3 /// KIR3DL3 /// KIR3DS1 (11738374_at) / RFU C1QL1 (11718748_at) / Fold change /veh C1QL1 (11718748_at) / RFU TMPRSS4 (11747572_a_at) / Fold change /veh TMPRSS4 (11747572_a_at) / RFU HAMP (11756126_x_at) / Fold change /veh HAMP (11756126_x_at) / RFU RNFT2 (11725882_a_at) / Fold change /veh RNFT2 (11725882_a_at) / RFU NR4A2 (11747474_a_at) / Fold change /veh NR4A2 (11747474_a_at) / RFU ABCC12 (11746883_a_at) / Fold change /veh ABCC12 (11746883_a_at) / RFU TMEM136 (11760407_x_at) / Fold change /veh TMEM136 (11760407_x_at) / RFU CLDN22 /// WWC2 (11732394_at) / Fold change /veh CLDN22 /// WWC2 (11732394_at) / RFU HLA-DPB1 (11760878_x_at) / Fold change /veh HLA-DPB1 (11760878_x_at) / RFU SPINT1 (11716480_a_at) / Fold change /veh SPINT1 (11716480_a_at) / RFU GAP43 (11754022_s_at) / Fold change /veh GAP43 (11754022_s_at) / RFU A4GNT (11735810_at) / Fold change /veh A4GNT (11735810_at) / RFU PRB3 (11715151_x_at) / Fold change /veh PRB3 (11715151_x_at) / RFU TUBB4B (11761932_at) / Fold change /veh TUBB4B (11761932_at) / RFU CAPN14 (11732068_a_at) / Fold change /veh CAPN14 (11732068_a_at) / RFU TMCC2 (11721928_a_at) / Fold change /veh TMCC2 (11721928_a_at) / RFU IRGQ (11745062_a_at) / Fold change /veh IRGQ (11745062_a_at) / RFU FAM174B (11720279_a_at) / Fold change /veh FAM174B (11720279_a_at) / RFU TMPRSS4 (11748680_a_at) / Fold change /veh TMPRSS4 (11748680_a_at) / RFU FAM212B (11763350_a_at) / Fold change /veh FAM212B (11763350_a_at) / RFU PLEKHG5 (11743358_a_at) / Fold change /veh PLEKHG5 (11743358_a_at) / RFU ZSCAN30 (11745921_a_at) / Fold change /veh ZSCAN30 (11745921_a_at) / RFU CMKLR1 (11741424_a_at) / Fold change /veh CMKLR1 (11741424_a_at) / RFU LOC101060620 /// MAPK8IP1 (11723275_at) / Fold change /veh LOC101060620 /// MAPK8IP1 (11723275_at) / RFU SPTSSB (11747773_x_at) / Fold change /veh SPTSSB (11747773_x_at) / RFU PRSS12 (11739890_at) / Fold change /veh PRSS12 (11739890_at) / RFU BIN1 (11741810_x_at) / Fold change /veh BIN1 (11741810_x_at) / RFU WNT11 (11732464_a_at) / Fold change /veh WNT11 (11732464_a_at) / RFU C10orf10 (11716521_a_at) / Fold change /veh C10orf10 (11716521_a_at) / RFU C5orf56 (11738089_at) / Fold change /veh C5orf56 (11738089_at) / RFU CYB561 (11721691_x_at) / Fold change /veh CYB561 (11721691_x_at) / RFU ANKRD19P (11752326_a_at) / Fold change /veh ANKRD19P (11752326_a_at) / RFU OR2T12 /// OR2T33 /// OR2T8 (11738714_s_at) / Fold change /veh OR2T12 /// OR2T33 /// OR2T8 (11738714_s_at) / RFU VCAN (11748164_a_at) / Fold change /veh VCAN (11748164_a_at) / RFU JSRP1 (11732532_at) / Fold change /veh JSRP1 (11732532_at) / RFU KRTAP10-11 (11738290_x_at) / Fold change /veh KRTAP10-11 (11738290_x_at) / RFU MYO3A (11730013_a_at) / Fold change /veh MYO3A (11730013_a_at) / RFU EBF3 (11725865_a_at) / Fold change /veh EBF3 (11725865_a_at) / RFU CAMK2N1 (11719241_x_at) / Fold change /veh CAMK2N1 (11719241_x_at) / RFU C5orf56 (11738088_a_at) / Fold change /veh C5orf56 (11738088_a_at) / RFU OLFML3 (11715873_a_at) / Fold change /veh OLFML3 (11715873_a_at) / RFU LOC100653217 /// NTM (11731650_a_at) / Fold change /veh LOC100653217 /// NTM (11731650_a_at) / RFU MAPK11 (11762145_a_at) / Fold change /veh MAPK11 (11762145_a_at) / RFU FIZ1 (11724087_x_at) / Fold change /veh FIZ1 (11724087_x_at) / RFU OASL (11726364_x_at) / Fold change /veh OASL (11726364_x_at) / RFU SOX15 (11748057_x_at) / Fold change /veh SOX15 (11748057_x_at) / RFU CD79A (11719716_a_at) / Fold change /veh CD79A (11719716_a_at) / RFU HIST1H1D (11736915_at) / Fold change /veh HIST1H1D (11736915_at) / RFU CASKIN2 (11723855_a_at) / Fold change /veh CASKIN2 (11723855_a_at) / RFU LOC730098 (11760151_x_at) / Fold change /veh LOC730098 (11760151_x_at) / RFU OR4N2 (11742367_at) / Fold change /veh OR4N2 (11742367_at) / RFU PRRT2 (11749266_a_at) / Fold change /veh PRRT2 (11749266_a_at) / RFU SNX32 (11753110_a_at) / Fold change /veh SNX32 (11753110_a_at) / RFU CDHR5 (11726645_a_at) / Fold change /veh CDHR5 (11726645_a_at) / RFU RCAN1 (11760418_a_at) / Fold change /veh RCAN1 (11760418_a_at) / RFU FAM167A (11723789_a_at) / Fold change /veh FAM167A (11723789_a_at) / RFU FAM26E (11764081_at) / Fold change /veh FAM26E (11764081_at) / RFU ISYNA1 (11749810_s_at) / Fold change /veh ISYNA1 (11749810_s_at) / RFU ACY1 (11761880_at) / Fold change /veh ACY1 (11761880_at) / RFU 11764098_at / Fold change /veh 11764098_at / RFU SAMD14 (11745864_x_at) / Fold change /veh SAMD14 (11745864_x_at) / RFU NPB (11741838_a_at) / Fold change /veh NPB (11741838_a_at) / RFU TMPRSS6 (11731388_a_at) / Fold change /veh TMPRSS6 (11731388_a_at) / RFU KRTAP10-2 (11738614_at) / Fold change /veh KRTAP10-2 (11738614_at) / RFU ARHGAP8 /// PRR5-ARHGAP8 (11727945_x_at) / Fold change /veh ARHGAP8 /// PRR5-ARHGAP8 (11727945_x_at) / RFU KRTAP5-7 /// NADSYN1 (11734609_at) / Fold change /veh KRTAP5-7 /// NADSYN1 (11734609_at) / RFU RASL12 (11751679_a_at) / Fold change /veh RASL12 (11751679_a_at) / RFU CDKN2B (11736163_a_at) / Fold change /veh CDKN2B (11736163_a_at) / RFU PRF1 (11729649_at) / Fold change /veh PRF1 (11729649_at) / RFU, ZNF638 /// ZNF638-IT1 / Fold change vs veh, ZNF638 /// ZNF638-IT1 / RFU, PANK3 / Fold change vs veh, PANK3 / RFU, SH3YL1 / Fold change vs veh, SH3YL1 / RFU, ZEB2 / Fold change vs veh, ZEB2 / RFU, NRIP1 / Fold change vs veh, NRIP1 / RFU, PTTG1IP / Fold change vs veh, PTTG1IP / RFU, CAPN2 / Fold change vs veh, CAPN2 / RFU, MED14 / Fold change vs veh, MED14 / RFU, SNORA58 / Fold change vs veh, SNORA58 / RFU, C1orf63 / Fold change vs veh, C1orf63 / RFU, LRRFIP1 / Fold change vs veh, LRRFIP1 / RFU, NDUFAF7 / Fold change vs veh, NDUFAF7 / RFU, SLC12A2 / Fold change vs veh, SLC12A2 / RFU, IBTK / Fold change vs veh, IBTK / RFU, ESF1 / Fold change vs veh, ESF1 / Fold change vs veh, TMEM50B / RFU, TAOK1 / Fold change vs veh, TAOK1 / RFU, ACBD3 / Fold change vs veh, ACBD3 / RFU, TMA16 / Fold change vs veh, TMA16 / RFU, RWDD3 / Fold change vs veh, RWDD3 / RFU, BCAT1 / Fold change vs veh, BCAT1 / RFU, EDEM3 / Fold change vs veh, EDEM3 / RFU, TMEM33 / Fold change vs veh, TMEM33 / RFU, WDR75 / Fold change vs veh, WDR75 / RFU, AHCTF1 / Fold change vs veh, AHCTF1 / RFU, TFRC / Fold change vs veh, TFRC / RFU, ZDHHC17 / Fold change vs veh, ZDHHC17 / RFU, NOM1 / Fold change vs veh, NOM1 / RFU, ARL8B / Fold change vs veh, ARL8B / RFU, ZBTB11 / Fold change vs veh, ZBTB11 / RFU, TAMM41 / Fold change vs veh, TAMM41 / RFU, KIAA1704 /// LOC100996395 / Fold change vs veh, KIAA1704 /// LOC100996395 / RFU, ING1 / Fold change vs veh, ING1 / RFU, TRMT61B / Fold change vs veh, TRMT61B / RFU, FUBP3 / Fold change vs veh, FUBP3 / RFU, TP53 / Fold change vs veh, TP53 / RFU, TNKS2 / Fold change vs veh, TNKS2 / RFU, ZFP14 / Fold change vs veh, ZFP14 / RFU, ACTR2 / Fold change vs veh, ACTR2 / RFU, PPP3R1 / Fold change vs veh, PPP3R1 / RFU, PIK3R1 / Fold change vs veh, PIK3R1 / RFU, HNRNPA1 / Fold change vs veh, HNRNPA1 / RFU, RNF170 / Fold change vs veh, RNF170 / RFU, ZNF28 / Fold change vs veh, ZNF28 / RFU, RNGTT / Fold change vs veh, RNGTT / RFU, OGT / Fold change vs veh, OGT / RFU, BRD1 / Fold change vs veh, BRD1 / RFU, MARS / Fold change vs veh, MARS / RFU, ZNF655 / Fold change vs veh, ZNF655 / RFU, FAHD1 / Fold change vs veh, FAHD1 / RFU, BDP1 / Fold change vs veh, BDP1 / RFU, LRRCC1 / Fold change vs veh, LRRCC1 / RFU, ARID1A / Fold change vs veh, ARID1A / RFU, ZNF146 / Fold change vs veh, ZNF146 / RFU, ZNF330 / Fold change vs veh, ZNF330 / RFU, GPN3 / Fold change vs veh, GPN3 / RFU, C9orf123 / Fold change vs veh, C9orf123 / RFU, N4BP2L2 / Fold change vs veh, N4BP2L2 / RFU, ARFIP1 / Fold change vs veh, ARFIP1 / RFU, FAM179B / Fold change vs veh, FAM179B / RFU, BCL10 / Fold change vs veh, BCL10 / RFU, UHRF1BP1L / Fold change vs veh, UHRF1BP1L / RFU, BET1 / Fold change vs veh, BET1 / RFU, CNOT2 / Fold change vs veh, CNOT2 / RFU, ZNF268 / Fold change vs veh, ZNF268 / Fold change vs veh, ZNF507 / RFU, DGCR2 / Fold change vs veh, DGCR2 / RFU, WDSUB1 / Fold change vs veh, WDSUB1 / Fold change vs veh, HSP90B1 /// MIR3652 / RFU, ADSS / Fold change vs veh, ADSS / RFU, GK / Fold change vs veh, GK / RFU, ZNF148 / Fold change vs veh, ZNF148 / RFU, TAF9 / Fold change vs veh, TAF9 / RFU, SLC1A5 / Fold change vs veh, SLC1A5 / RFU, SLMO2 / Fold change vs veh, SLMO2 / RFU, ABCC4 / Fold change vs veh, ABCC4 / RFU, LOC101060439 /// RAP1B / Fold change vs veh, LOC101060439 /// RAP1B / RFU, RFX7 / Fold change vs veh, RFX7 / RFU, GTPBP10 / Fold change vs veh, GTPBP10 / RFU, CNEP1R1 / Fold change vs veh, CNEP1R1 / RFU, BIVM-ERCC5 /// ERCC5 / Fold change vs veh, BIVM-ERCC5 /// ERCC5 / RFU, ILF3 / Fold change vs veh, ILF3 / RFU 11762660_at / Fold change /veh 11762660_at / RFU VCAN (11757783_s_at) / Fold change /veh VCAN (11757783_s_at) / RFU DDX43 (11728927_at) / Fold change /veh DDX43 (11728927_at) / RFU KRT8 (11758188_x_at) / Fold change /veh KRT8 (11758188_x_at) / RFU NKD1 (11759106_at) / Fold change /veh NKD1 (11759106_at) / RFU SRD5A1 (11742802_a_at) / Fold change /veh SRD5A1 (11742802_a_at) / RFU TPSAB1 /// TPSB2 (11721975_s_at) / Fold change /veh TPSAB1 /// TPSB2 (11721975_s_at) / RFU GSTM3 (11746129_a_at) / Fold change /veh GSTM3 (11746129_a_at) / RFU IL23R (11737362_x_at) / Fold change /veh IL23R (11737362_x_at) / RFU TMEM51 (11727254_a_at) / Fold change /veh TMEM51 (11727254_a_at) / RFU PIWIL2 (11732686_x_at) / Fold change /veh PIWIL2 (11732686_x_at) / RFU ORM1 (11744905_x_at) / Fold change /veh ORM1 (11744905_x_at) / RFU CCDC152 (11743942_at) / Fold change /veh CCDC152 (11743942_at) / RFU ECM1 (11717891_a_at) / Fold change /veh ECM1 (11717891_a_at) / RFU IL23R (11748794_a_at) / Fold change /veh IL23R (11748794_a_at) / RFU TNFAIP8L3 (11732012_x_at) / Fold change /veh TNFAIP8L3 (11732012_x_at) / RFU MBOAT4 (11741988_at) / Fold change /veh MBOAT4 (11741988_at) / RFU 11764193_at / Fold change /veh 11764193_at / RFU TMEM53 (11763286_at) / Fold change /veh TMEM53 (11763286_at) / RFU MAGEB2 (11727129_at) / Fold change /veh MAGEB2 (11727129_at) / RFU TMEM200A (11744735_a_at) / Fold change /veh TMEM200A (11744735_a_at) / RFU CCDC152 (11751479_a_at) / Fold change /veh CCDC152 (11751479_a_at) / RFU FAM211A (11726209_a_at) / Fold change /veh FAM211A (11726209_a_at) / RFU RGS16 (11746705_a_at) / Fold change /veh RGS16 (11746705_a_at) / RFU VCAN (11755009_s_at) / Fold change /veh VCAN (11755009_s_at) / RFU RHOB (11743442_s_at) / Fold change /veh RHOB (11743442_s_at) / RFU RGS16 (11720943_a_at) / Fold change /veh RGS16 (11720943_a_at) / RFU RGS16 (11720944_at) / Fold change /veh RGS16 (11720944_at) / RFU, VPS4B / Fold change vs veh, VPS4B / RFU, CREB1 / Fold change vs veh, CREB1 / RFU, DNAJC13 / Fold change vs veh, DNAJC13 / RFU, GNAQ / Fold change vs veh, GNAQ / RFU, CDK5R1 / Fold change vs veh, CDK5R1 / RFU, ZRANB3 / Fold change vs veh, ZRANB3 / RFU, CUL4A / Fold change vs veh, CUL4A / RFU, CCNY / Fold change vs veh, CCNY / RFU, UFL1 / Fold change vs veh, UFL1 / RFU, COG3 / Fold change vs veh, COG3 / RFU, DIAPH2 / Fold change vs veh, DIAPH2 / RFU, SKA2 / Fold change vs veh, SKA2 / RFU, AFF3 / Fold change vs veh, AFF3 / RFU, LMF1 / Fold change vs veh, LMF1 / RFU, IPO11 / Fold change vs veh, IPO11 / RFU, DFFB / Fold change vs veh, DFFB / RFU, FOXP1 / Fold change vs veh, FOXP1 / RFU, CARD8 / Fold change vs veh, CARD8 / RFU, STRN3 / Fold change vs veh, STRN3 / RFU, ADK / Fold change vs veh, ADK / RFU, RASSF2 / Fold change vs veh, RASSF2 / RFU, WIPF1 / Fold change vs veh, WIPF1 / RFU, LARP1B / Fold change vs veh, LARP1B / RFU, RASA1 / Fold change vs veh, RASA1 / RFU, RB1 / Fold change vs veh, RB1 / RFU, PPFIA1 / Fold change vs veh, PPFIA1 / RFU, MAT2A / Fold change vs veh, MAT2A / RFU, CCT5 / Fold change vs veh, CCT5 / RFU, WDR92 / Fold change vs veh, WDR92 / RFU, CUX1 / Fold change vs veh, CUX1 / RFU, TTC7A / Fold change vs veh, TTC7A / RFU, TMEM135 / Fold change vs veh, TMEM135 / RFU, DEPTOR / Fold change vs veh, DEPTOR / RFU, CPM / Fold change vs veh, CPM / RFU, DNAJB6 / Fold change vs veh, DNAJB6 / RFU, CACNA2D3 / Fold change vs veh, CACNA2D3 / RFU, DTX4 / Fold change vs veh, DTX4 / RFU, TFCP2 / Fold change vs veh, TFCP2 / RFU, GMCL1 /// GMCL1P1 / Fold change vs veh, GMCL1 /// GMCL1P1 / RFU, AEBP2 / Fold change vs veh, AEBP2 / RFU, SNHG1 /// SNORD22 /// SNORD25 /// SNORD26 /// SNORD27 /// SNORD28 /// SNORD29 /// SNORD31 / Fold change vs veh, SNHG1 /// SNORD22 /// SNORD25 /// SNORD26 /// SNORD27 /// SNORD28 /// SNORD29 /// SNORD31 / Fold change (Aza/veh), C12orf56 (ProbeSet 11735607_a_at) / Fold change (ACY-1035/veh), C12orf56 (ProbeSet 11735607_a_at) / Fold change (Aza/veh), FGFR1OP (ProbeSet 11751329_s_at) / Fold change (ACY-1035/veh), FGFR1OP (ProbeSet 11751329_s_at) / Fold change (Aza/veh), VPS36 (ProbeSet 11739960_a_at) / Fold change (ACY-1035/veh), VPS36 (ProbeSet 11739960_a_at) / RFU SYPL1 (11715823_x_at) / Fold change /veh SYPL1 (11715823_x_at) / RFU IGFBP7 (11715501_s_at) / Fold change /veh IGFBP7 (11715501_s_at) / RFU REEP3 (11722064_at) / Fold change /veh REEP3 (11722064_at) / RFU IGLL1 (11728026_x_at) / Fold change /veh IGLL1 (11728026_x_at): dose or concentration left out as unconfirmed
# Conditions: ProbeSet 11758397_s_at; LIST B
structure (smiles),measurement,value
Nc1ccc(-c2cccs2)cc1NC(=O)c1ccc2c(c1)cc(C1CC1)n2CCN1CCOCC1 [ACY-1035],"Fold change vs veh, RNF170",0.96
